These results are taken from ChEMBL document CHEMBL1130395, “Cannabinol derivatives: binding to cannabinoid receptors and inhibition of adenylylcyclase” (J Med Chem, 1997).

Molecules are shown by their SMILES. The source made the active and inactive calls. The rule behind the calls is not given here. Bounds are passed on as bounds.

Experiment [1] deals with T1, Cannabinoid receptor 2 (Homo sapiens, UniProt P34972). In words: Effective concentration for inhibition of human Cannabinoid receptor 2-mediated adenylyl cyclase using African green monkey (COS-7) cells transfected with the cDNA of human CB2 receptor. The format is functional.
In experiment [2] the target is T2, Cannabinoid receptor 1 (Rattus norvegicus, UniProt P20272). The experiment can be described thus: Effective concentration for inhibition of Cannabinoid receptor 1-mediated adenylyl cyclase activity using African green monkey (COS-7) cells transfected with the cDNA of rat CB1 receptor. The format is functional.
Experiment [3] concerns the target T2, Cannabinoid receptor 1. The experiment can be described thus: Binding affinity for Cannabinoid receptor 1 using African green monkey (COS-7) cells transfected with the cDNA of […].
For experiment [4], the target named is T1, Cannabinoid receptor 2. In words: Binding affinity to Cannabinoid receptor 2 using African green monkey (COS-7) cells Chinese hamster ovary(CHO) cells transfected with the cDNA of human CB2. It counts as cell-based.
The target in experiment [5] is T2, Cannabinoid receptor 1. In words: Binding to Cannabinoid receptor 1 using African green monkey (COS-7) cells transfected with the cDNA of rat CB1. It counts as cell-based.
Experiment [6] has as its target T2, Cannabinoid receptor 1. The experiment can be described thus: Binding affinity of compound towards Cannabinoid receptor 1 in african green monkey COS-7 cells transfected with cDNA of rat CB1 receptor. It counts as cell-based.
Experiment [7] deals with T2, Cannabinoid receptor 1. In words: Binding affinity of compound towards Cannabinoid receptor 1 in rat brain synaptosomal membrane preparations. The format is cell membranes.
Experiment [8] deals with T1, Cannabinoid receptor 2. The experiment can be described thus: Binding affinity of compound towards Cannabinoid receptor 2 in african green monkey COS-7 cells transfected with cDNA of human CB2 receptor. It counts as cell-based.
In experiment [9] the target is T1, Cannabinoid receptor 2. The experiment can be described thus: Inhibitory activity of 1 uM against human Cannabinoid receptor 2-mediated adenylyl cyclase using African green monkey (COS-7) cells transfected with the cDNA of human CB2 receptor. The format is functional, cell-based.
In experiment [10] the target is T1, Cannabinoid receptor 2. In words: Inhibitory affect of 1 uM against African green monkey (COS-7) cells Chinese hamster ovary(CHO) cells transfected with the cDNA of human Cannabinoid receptor 2. The format is cell-based.
In experiment [11] the target is Cannabinoid receptor 1 (Rattus norvegicus) (UniProt P20272). In words: Inhibitory affect of 1 uM againstAfrican green monkey (COS-7) cells transfected with the cDNA of rat Cannabinoid receptor 1. The format is cell-based.
The target is the same in experiment [12]. In words: Inhibitory affect of 1 uM of the substance against Cannabinoid receptor 1-mediated adenylyl cyclase using African green monkey (COS-7) cells transfected with the cDNA of rat CB1 receptor. The format is functional, cell-based.
Experiment [13] deals with T1, Cannabinoid receptor 2. The experiment can be described thus: Inhibitory effect of 1 uM of the substance against African green monkey (COS-7) cells Chinese hamster ovary(CHO) cells transfected with the cDNA of human Cannabinoid receptor 2. It counts as cell-based.
Experiment [14] has as its target Cannabinoid receptor 1 (Rattus norvegicus) (UniProt P20272). The experiment can be described thus: Inhibitory affect of 1 uM 0f the substance against cDNA of rat Cannabinoid receptor 1.
For experiment [15] the target is unchanged. In words: Inhibitory affect of 1 uM of the substance against Cannabinoid receptor 1-mediated adenylyl cyclase using African green monkey (COS-7) cells transfected with the cDNA of rat CB1 receptor; No inhibition. It counts as functional, cell-based.
Experiment [16] has as its target T1, Cannabinoid receptor 2. In words: Inhibitory affect of 1 uM of the substance against African green monkey (COS-7) cells Chinese hamster ovary(CHO) cells transfected with the cDNA of human Cannabinoid receptor 2. It counts as cell-based.
Experiment [17] concerns the target T1, Cannabinoid receptor 2. The experiment can be described thus: Inhibitory affect of 1 uM of the substance against human Cannabinoid receptor 2-mediated adenylyl cyclase using African green monkey (COS-7) cells transfected with the cDNA of human CB2 receptor; No inhibition. The format is functional, cell-based.
Experiment [18] has as its target Cannabinoid receptor 1 (Rattus norvegicus) (UniProt P20272). The experiment can be described thus: Inhibitory affect of 1 uM of the substance against African green monkey (COS-7) cells transfected with the cDNA of rat Cannabinoid receptor 1. It counts as cell-based.

T1 sequence (P34972 whole entry): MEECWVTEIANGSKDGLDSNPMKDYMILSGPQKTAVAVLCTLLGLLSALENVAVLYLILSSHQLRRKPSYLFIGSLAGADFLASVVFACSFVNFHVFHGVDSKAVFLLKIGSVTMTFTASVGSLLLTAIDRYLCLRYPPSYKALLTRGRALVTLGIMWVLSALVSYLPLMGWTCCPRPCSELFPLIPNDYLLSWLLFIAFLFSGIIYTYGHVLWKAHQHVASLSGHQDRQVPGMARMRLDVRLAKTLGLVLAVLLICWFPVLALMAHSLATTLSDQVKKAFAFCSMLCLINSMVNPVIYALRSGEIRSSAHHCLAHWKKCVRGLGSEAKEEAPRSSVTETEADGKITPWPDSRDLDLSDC
Chain of Cannabinoid receptor 1 (Rattus norvegicus) (P20272 whole entry): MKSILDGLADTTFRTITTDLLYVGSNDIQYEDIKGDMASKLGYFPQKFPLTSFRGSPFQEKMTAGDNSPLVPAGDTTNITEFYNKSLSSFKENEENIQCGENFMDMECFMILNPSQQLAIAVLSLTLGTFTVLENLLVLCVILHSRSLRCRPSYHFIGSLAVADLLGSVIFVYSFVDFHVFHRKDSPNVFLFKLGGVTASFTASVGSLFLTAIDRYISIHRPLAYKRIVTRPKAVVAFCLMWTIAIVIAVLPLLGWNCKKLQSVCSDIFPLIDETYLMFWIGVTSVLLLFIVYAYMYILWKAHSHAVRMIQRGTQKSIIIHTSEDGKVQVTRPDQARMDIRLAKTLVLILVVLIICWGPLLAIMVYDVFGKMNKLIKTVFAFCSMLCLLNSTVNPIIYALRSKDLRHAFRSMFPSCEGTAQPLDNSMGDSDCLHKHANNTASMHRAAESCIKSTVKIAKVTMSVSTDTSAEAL
T2 sequence (P20272 whole entry): as above

As a reminder, the EC50 is the concentration that produces a half-maximal response. Usually Ki stands for a dissociation constant, usually derived from enzyme kinetics or from competition with a known ligand. Turning to `CCCCCCC(C)(C)c1cc(O)c2c(c1)OC(C)(C)c1ccc(C)cc1-2`, the EC50 turned out to be 0.79 nM on Cannabinoid receptor 2 [1] and 0.18 nM at Cannabinoid receptor 1 [2]. Moreover, the Ki on Cannabinoid receptor 1 [3] amounted to 3.3 nM; on Cannabinoid receptor 2 [4], 1.5 nM; at Cannabinoid receptor 1 [5], 2 nM.
`CCCCCCC(C)(C)c1cc(O)c2c(c1)OC(C)(C)[C@@H]1CC=C(CO)CC21` (some centres undefined) came in with an EC50 at Cannabinoid receptor 1 [2] of 0.035 nM. Also, the figures for the Ki at Cannabinoid receptor 1 [3] and at Cannabinoid receptor 1 [5] were 0.19 nM and 0.1 nM, respectively.
For `CCCCCCC(C)(C)c1cc(O)c2c(c1)OC(C)(C)c1ccc(C(=O)O)cc1-2`, the EC50 is 5.4 nM at Cannabinoid receptor 2 [1] and 2.4 nM on Cannabinoid receptor 1 [2]. In addition, the inhibition constant Ki at Cannabinoid receptor 1 [3] came out at 6.1 nM; at Cannabinoid receptor 2 [4], 4.8 nM; on Cannabinoid receptor 1 [5], 6.1 nM.
With `CCCCCCC(C)(C)c1cc(O)c2c(c1)OC(C)(C)[C@@H]1CC=C(C(=O)O)CC21` (some centres undefined), the EC50 at Cannabinoid receptor 2 [1] was determined as 116 nM; at Cannabinoid receptor 1 [2], 927 nM. The Ki at Cannabinoid receptor 1 [3] worked out at 481 nM; on Cannabinoid receptor 2 [4] it was 170 nM; on Cannabinoid receptor 1 [5], 32.3 nM.
As to `CCCCCc1cc(O)c2c(c1)OC(C)(C)c1ccc(C)cc1-2` [CANNABINOL], the EC50 was found to be 261 nM on Cannabinoid receptor 2 [1] and 120 nM at Cannabinoid receptor 1 [2]. The Ki at Cannabinoid receptor 1 [6] came out at 211 nM; on Cannabinoid receptor 1 [7], 392 nM; at Cannabinoid receptor 2 [8] it was 126 nM.
Broadly, the inhibition is the relative decrease from the control value, in per cent. Consider `CCCCCc1cc(OC(C)=O)c2c(c1)OC(C)(C)c1ccc(C(=O)O)cc1-2`, for which the inhibition against Cannabinoid receptor 2 [9] is 2%; on Cannabinoid receptor 2 [10], 19%; in experiment [11], 35%; in [12], 3%. The Ki at Cannabinoid receptor 1 [3] is above 10000 nM.
For the compound `CCCCCCC(C)(C)c1cc(OC(C)=O)c2c(c1)OC(C)(C)[C@@H]1CC=C(C(=O)O)CC21` (some centres undefined), the inhibition was 27% at Cannabinoid receptor 2 [9], 9% against Cannabinoid receptor 2 [13] and 11% in [14]. Also, the inhibition result in [15] is “inactive”. Moreover, at Cannabinoid receptor 1 [3], the Ki was above 10000 nM.
Take `CCCCCc1cc(O)c2c(c1)OC(C)(C)[C@@H]1CC=C(CO)CC21` (some centres undefined): the inhibition on Cannabinoid receptor 2 [9] came out at 19%. The EC50 on Cannabinoid receptor 1 [2] is 39.9 nM. Moreover, the figures for the inhibition constant Ki on Cannabinoid receptor 1 [3], at Cannabinoid receptor 2 [4] and on Cannabinoid receptor 1 [5] were 33.4 nM, 7.4 nM and 25.8 nM, respectively.
Consider `CCCCCCC(C)(C)c1cc(O)c2c(c1)oc(=O)c1ccc(C)cc12`, for which the EC50 is 4.6 nM at Cannabinoid receptor 2 [1] and 9.6 nM on Cannabinoid receptor 1 [2]. Besides, the Ki on Cannabinoid receptor 1 [3] came to 72.5 nM; on Cannabinoid receptor 2 [4], 17.3 nM; on Cannabinoid receptor 1 [5], 32.7 nM.
Regarding `CCCCCc1cc(O)c2c(c1)oc(=O)c1ccc(C)cc12`, the inhibition was 14% at Cannabinoid receptor 2 [16], 14% in experiment [18] and 7% in experiment [12]. Further, the inhibition entry on Cannabinoid receptor 2 [17] was “inactive”. On Cannabinoid receptor 1 [3], this compound showed a Ki above 10000 nM.
Consider `CCCCCc1cc(O)c2c(c1)OC(C)(C)[C@@H]1CCC(C)=C[C@@H]21`, for which the inhibition at Cannabinoid receptor 2 [9] was determined as 21%.
On to `CCCCCCC(C)(C)c1cc(O)c2c(c1)OC(C)(C)[C@@H]1CCC(C)=CC21` (some centres undefined), for which the half-maximal effective concentration (EC50) on Cannabinoid receptor 2 [1] was 1.01 nM; at Cannabinoid receptor 1 [2], 0.58 nM. For the same compound, the Ki at Cannabinoid receptor 1 [3] was 2.6 nM; at Cannabinoid receptor 2 [4] it was 0.199 nM; at Cannabinoid receptor 1 [5] it was 0.241 nM.
Turning to `CCCCCCC(C)(C)c1cc(O)c2c(c1)OC(C)(C)c1ccc(CO)cc1-2`, the EC50 on Cannabinoid receptor 2 [1] is 0.208 nM; at Cannabinoid receptor 1 [2] it was 0.056 nM. The Ki on Cannabinoid receptor 1 [3] turned out to be 1.8 nM; at Cannabinoid receptor 2 [4], 0.2 nM; on Cannabinoid receptor 1 [5], 0.1 nM.
Regarding `CCCCCCC(C)(C)c1cc(OC(C)=O)c2c(c1)OC(C)(C)c1ccc(C(=O)O)cc1-2`, the EC50 at Cannabinoid receptor 2 [1] was determined as 39.3 nM; on Cannabinoid receptor 1 [2] it was 13.3 nM. Further, the inhibition constant (Ki) was found to be 556 nM on Cannabinoid receptor 1 [3], 17.3 nM on Cannabinoid receptor 2 [4] and 49.8 nM on Cannabinoid receptor 1 [5].
At Cannabinoid receptor 2 [9], `CCCCCc1cc(O)c2c(c1)OC(C)(C)c1ccc(CO)cc1-2` returned an inhibition of 20%. This compound also returned an EC50 on Cannabinoid receptor 1 [2] of 58.1 nM. The Ki stood at 189 nM on Cannabinoid receptor 1 [3], 26.6 nM at Cannabinoid receptor 2 [4] and 38 nM at Cannabinoid receptor 1 [5].
For `CCCCCc1cc(O)c2c(c1)OC(C)(C)c1ccc(C(=O)O)cc1-2`, the inhibition was 6% against Cannabinoid receptor 2 [9], 23% against Cannabinoid receptor 2 [16], below 2% in experiment [18] and 10% in experiment [12]. The Ki at Cannabinoid receptor 1 [3] came to 602 nM.
